Measured values as given in patent US10501460B2, “Heterocyclic compounds and uses thereof” (Plexxikon Inc., priority 2013, dated 2019).

Experiments:
MV-4-11 = experiment: Oncology cell growth assay MV-4-11 (CellTiter Glo, 72 hours); type: cell-based; settings: Homo sapiens, MV4-11, 72 h; MV-4-11 cell growth inhibitory activity, 3d
From the text: Published bromodomain inhibitors JQ1 and iBET 151 have shown activity in variety of cancer cells such leukemia and lymphoma, multiple myeloma cells, NUT midline carcinoma and glioblastoma cells (Dawson M A et al. 2011; Delmore J E 2011; Chen Z et al. 2013; Filippakopoulos P et al. 2010; Mertz J A et al. 2011; Ott C J et al. 2012). In this study, we test compounds in different cancer cell lines. MV-4-11 and MOLM-13 are AML cell lines harboring a MLL-AF4 and MLL-AF9 translocation, respectively. MM.1S is a multiple myeloma cell line. SK-N-AS, IMR-32 and SK-N-BE(2) are neuroblastoma cell lines. IMR-32 and SK-N-BE(2) cell lines harbor MYCN amplifications. MV-4-11, MM.1S, IMR-32, SK-N-AS and SK-N-BE(2) were obtained from ATCC (IL, USA) and MOLM-13 were purchased from DSMZ (Braunschweig, German). Cells are cultured as recommended by their sources. For growth inhibition studies 3000 cells are seeded in wells of a 96-well plate in 75 μL of culture media. After several hours, growth media containing compounds of formula (I) are added to the wells. Compound at a maximal concentration of 5 mM was serially diluted 1:3 for a total of 8 point titration with DMSO as a control. A 1 μL aliquot of each dilution point is added to 249 μL growth media and 75 μL is added to each well containing cells, providing 10 μM compound at the maximum concentration point. The final concentration of DMSO in all wells is 0.2%. Cells are incubated for 72 hours, and 25 μL of CellTiter Glo Reagent (Promega Ga., USA) is added to each well. Plates are shaken for approximately 10 minutes and chemiluminescent signal is read on Tecan microplate reader. The measured luminescence correlates directly with cell number.
All data is normalized to the mean of eight DMSO high control wells on each plate. A four parameter curve fit of the following formula was then applied: Y=a+(b−a)/(1+(x/c)^d) Where ‘a’ is the minimum, ‘b’ is the maximum, ‘c’ is the pIC50 and ‘d’ is the Hill slope. […] Myc Reporter Assay
The following table provides data indicating the BRD4 biochemical inhibitory activity and MV-4-11 cell growth inhibitory activity for exemplary compounds as described herein.

bromodomain = experiment: Bromodomain cell assays of Example 40 (at least one of them); type: cell-based; settings: in at least one of the bromodomain cell assays described in Example 40
Outline: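 Growth inhibition: 3000 MV-4-11, MOLM-13, MM.1S or neuroblastoma cells/well got an 8-point 1:3 series from 10 μM top (0.2% DMSO) for 72 h, then CellTiter-Glo luminescence. Myc reporter: MV-4-11 with E-box firefly luciferase, 24 h exposure, One-Glo luminescence plus CellTiter-Fluo cell count. pIC50 from four-parameter fit.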

IC50 (MV-4-11) [µM] | IC50 (bromodomain) [µM] | Structure (SMILES)
≤ 1 | < 10 | Cc1noc(C)c1-c1cnc2c(-c3cnn(C)c3)cn(S(=O)(=O)C3CCCC3)c2c1 [P-0112, 4-[1-cyclopentylsulfonyl-3-(1-methylpyrazol-4-yl)pyrrolo[3,2-b]pyridin-6-yl]-3,5-dimethyl-isoxazole]
1 to 10 | < 10 | Cc1noc(C)c1-c1cnc2[nH]cc(Cc3cccc4c3OC(F)(F)O4)c2c1 [P-0048, 4-[3-[(2,2-difluoro-1,3-benzodioxol-4-yl)methyl]-1H-pyrrolo[2,3-b]pyridin-5-yl]-3,5-dimethyl-isoxazole]
≤ 1 | < 10 | [2H]C([2H])(C1CCC(F)(F)CC1)n1cc(-c2cnn(C(F)F)c2)c2ncc(-c3c(C)noc3C)cc21 [P-0219, 4-[1-[dideuterio-(4,4-difluorocyclohexyl)methyl]-3-[1-(difluoromethyl)pyrazol-4-yl]pyrrolo[3,2-b]pyridin-6-yl]-3,5-dimethyl-isoxazole]
≤ 1 | < 10 | Cc1noc(C)c1-c1cnc2c(-c3cnn(C)c3)cn(C(C(=O)NC3CC3)c3ccccc3)c2c1 (stereo not drawn) [P-0207, N-cyclopropyl-2-[6-(3,5-dimethylisoxazol-4-yl)-3-(1-methylpyrazol-4-yl)pyrrolo[3,2-b]pyridin-1-yl]-2-phenyl-acetamide]
≤ 1 | < 10 | Cc1noc(C)c1-c1cnc2c(-c3cccnc3)cn(S(=O)(=O)c3ccccc3)c2c1 [P-0084, 4-[1-(benzenesulfonyl)-3-(3-pyridyl)pyrrolo[3,2-b]pyridin-6-yl]-3,5-dimethyl-isoxazole]
≤ 1 | < 10 | Cc1noc(C)c1-c1cnc2[nH]cc(C(O)c3c(F)cccc3Cl)c2c1 (stereo not drawn) [P-0021, (2-chloro-6-fluoro-phenyl)-[5-(3,5-dimethylisoxazol-4-yl)-1H-pyrrolo[2,3-b]pyridin-3-yl] methanol]
≤ 1 | < 10 | CCCS(=O)(=O)n1cc(-c2cnn(CCOC)c2)c2ncc(-c3c(C)noc3C)cc21 [P-0152, 4-[3-[l-(2-methoxyethyl)pyrazol-4-yl]-1-propylsulfonyl-pyrrolo [3,2-b]pyridin-6-yl]-3,5-dimethyl-isoxazole]
≤ 1 | < 10 | CCC(c1cn(C)c2ncc(-c3c(C)noc3C)cc12)C1CCC(F)(F)CC1 (stereo not drawn) [P-0118, 4-[3-[1-(4,4-difluorocyclohexyl)propyl]-1-methyl-pyrrolo[2,3-b]pyridin-5-yl]-3,5-dimethyl-isoxazole]
≤ 1 | < 10 | CCNC(=O)N1CCC(Cc2cn(C)c3ncc(-c4c(C)noc4C)cc23)CC1 [P-0117, 4-[[5-(3,5-dimethylisoxazol-4-yl)-1-methyl-pyrrolo[2,3-b]pyridin-3-yl]methyl]-N-ethyl-piperidine-1-carboxamide]
≤ 1 | < 10 | COc1ncc(F)cc1Cc1c[nH]c2ncc(-c3c(C)noc3C)cc12 [P-0028, 4-[3-[(5-fluoro-2-methoxy-3-pyridyl)methyl]-1H-pyrrolo[2,3-b]pyridin-5-yl]-3,5-dimethyl-isoxazole]
1 to 10 | < 10 | CCc1[nH]c2ncc(-c3c(C)noc3C)cc2c1C(O)c1cccc(OC(F)(F)F)c1 (stereo not drawn) [P-0043, [5-(3,5-dimethylisoxazol-4-yl)-2-ethyl-1H-pyrrolo[2,3-b]pyridin-3-yl]-[3-(trifluoromethoxy)phenyl]methanol]
≤ 1 | < 10 | Cc1noc(C)c1-c1cnc2[nH]cc(S(=O)(=O)c3ccccc3)c2c1 [P-0145, 4-[3-(benzenesulfonyl)-1H-pyrrolo[2,3-b]pyridin-5-yl]-3,5-dimethyl-isoxazole]
≤ 1 | < 10 | COCCn1cc(-c2cn(C(C)c3ccccc3)c3cc(-c4c(C)noc4C)cnc23)cn1 (stereo not drawn) [P-0203, 4-[3-[1-(2-methoxyethyl)pyrazol-4-yl]-1-(1-phenylethyl)pyrrolo[3,2-b]pyridin-6-yl]-3,5-dimethyl-isoxazole]
≤ 1 | < 10 | Cc1noc(C)c1-c1cnc2[nH]cc(C(O)c3ccccc3Cl)c2c1 (stereo not drawn) [P-0019, (2-chlorophenyl)-[5-(3,5-dimethylisoxazol-4-yl)-1H-pyrrolo[2,3-b]pyridin-3-yl]methanol]
≤ 1 | < 10 | C=CCn1cc(-c2cn(S(=O)(=O)c3ccccc3F)c3cc(-c4c(C)noc4C)cnc23)cn1 [P-0127, 4-[3-(1-allylpyrazol-4-yl)-1-(2-fluorophenyl)sulfonyl-pyrrolo[3,2-b]pyridin-6-yl]-3,5-dimethyl-isoxazole]
1 to 10 | < 10 | CCS(=O)(=O)n1cc(C(OC)C2CCC(F)(F)CC2)c2cc(-c3c(C)noc3C)cnc21 (stereo not drawn) [P-0078, 4-[3-[(4,4-difluorocyclohexyl)-methoxy-methyl]-1-ethylsulfonyl-pyrrolo[2,3-b]pyridin-5-yl]-3,5-dimethyl-isoxazole]
≤ 1 | < 10 | C=CCn1cc(-c2cn(S(=O)(=O)c3ccccc3)c3cc(-c4c(C)noc4C)cnc23)cn1 [P-0126, 4-[3-(1-allylpyrazol-4-yl)-1-(benzenesulfonyl)pyrrolo [3,2-b]pyridin-6-yl]-3,5-dimethyl-isoxazole]
1 to 10 | < 10 | Cc1noc(C)c1-c1cnc2[nH]cc(C(O)c3ccc(OCC(F)(F)F)nc3)c2c1 (stereo not drawn) [P-0012, [5-(3,5-dimethylisoxazol-4-yl)-1H-pyrrolo[2,3-b]pyridin-3-yl]-[6-(2,2,2-trifluoroethoxy)-3-pyridyl]methanol]
≤ 1 | < 10 | Cc1noc(C)c1-c1cnc2c(-c3cnn(C)c3)cn(C(CO)c3ccccc3)c2c1 (stereo not drawn) [P-0192, 2-[6-(3,5-dimethylisoxazol-4-yl)-3-(1-methylpyrazol-4-yl)pyrrolo[3,2-b]pyridin-1-yl]-2-phenyl-ethanol]
≤ 1 | < 10 | Cc1noc(C)c1-c1cnc2c(-c3cnn(C)c3)cn(Cc3cscn3)c2c1 [P-0171, 3,5-dimethyl-4-[3-(1-methylpyrazol-4-yl)-1-(thiazol-4-ylmethyl)pyrrolo[3,2-b]pyridin-6-yl]isoxazole]
≤ 1 | < 10 | Cc1noc(C)c1-c1cnc2[nH]cc(CC3CCC(F)(F)CC3)c2c1 [P-0034, 4-[3-[(4,4-difluorocyclohexyl)methyl]-1H-pyrrolo[2,3-b]pyridin-5-yl]-3,5-dimethyl-isoxazole]
≤ 1 | < 10 | Cc1noc(C)c1-c1cnc2c(c1)c(CC1CCN(C(=O)C(F)(F)F)CC1)cn2C [P-0106, 1-[4-[[5-(3,5-dimethylisoxazol-4-yl)-1-methyl-pyrrolo[2,3-b]pyridin-3-yl]methyl]-1-piperidyl]-2,2,2-trifluoro-ethanone]
1 to 10 | < 10 | Cc1noc(C)c1-c1cnc2[nH]cc(CC3CCS(=O)(=O)CC3)c2c1 [P-0098, 4-[[5-(3,5-dimethylisoxazol-4-yl)-1H-pyrrolo[2,3-b]pyridin-3-yl]methyl]thiane 1,1-dioxide]
1 to 10 | < 10 | COC(c1cn(S(=O)(=O)C2CCCCC2)c2cc(-c3c(C)noc3C)cnc12)C1CC1 (stereo not drawn) [P-0071, 4-[1-cyclohexylsulfonyl-3-[cyclopropyl(methoxy)methyl]pyrrolo[3,2-b]pyridin-6-yl]-3,5-dimethyl-isoxazole]
≤ 1 | < 10 | Cc1noc(C)c1-c1cnc2c(-c3cnn(C4CCOC4)c3)cn(S(=O)(=O)C3CCCC3)c2c1 (stereo not drawn) [P-0153, 4-[1-cyclopentylsulfonyl-3-(1-tetrahydrofuran-3-ylpyrazol-4-yl)pyrrolo [3,2-b]pyridin-6-yl]-3,5-dimethyl-isoxazole]
≤ 1 | < 10 | COc1ncc(F)cc1C(OC)c1c[nH]c2ncc(-c3c(C)noc3C)cc12 (stereo not drawn) [P-0011, 4-[3-[(5-fluoro-2-methoxy-3-pyridyl)-methoxy-methyl]-1H-pyrrolo[2,3-b]pyridin-5-yl]-3,5-dimethyl-isoxazole]
≤ 1 | < 10 | Cc1noc(C)c1-c1cnc2c(-c3cnn(C)c3)cn(Cc3ccccc3Cl)c2c1 [P-0193, 4-[1-[(2-chlorophenyl)methyl]-3-(1-methylpyrazol-4-yl)pyrrolo[3,2-b]pyridin-6-yl]-3,5-dimethyl-isoxazole]
